Test results taken from ChEMBL document CHEMBL2401644, “Synthesis and biological evaluation of new chlorin derivatives as potential photosensitizers for photodynamic therapy” (Bioorg Med Chem, 2013).
One block for each compound: values may come before it. The source made the active and inactive calls. No cut-off for these calls is given here.

Experiments:
C26 [1] = assay: Antitumor activity against mouse C26 cells allografted in BALB/c mouse assessed as reduction in nuclei size of tumor cells at 10 mg/kg, iv administered for 3 hrs followed by light irradiation measured after 3 days by hematoxylin and eosin staining relative to control; type: functional, organism-based; design: dose 10 mg/kg
[2] = Biodistribution in serum of BALB/c mouse allografted with mouse C26 cells at 10 mg/kg, iv after 1 hr; type: ADME, organism-based; design: dose 10 mg/kg, route intravenous; conditions: read-out: Drug uptake
Lung [3] = assay: Biodistribution in lung of BALB/c mouse allografted with mouse C26 cells at 10 mg/kg, iv after 3 hrs; type: ADME, organism-based; design: dose 10 mg/kg, route intravenous; conditions: in vivo
Kidney [4] = assay: Biodistribution in kidney of BALB/c mouse allografted with mouse C26 cells at 10 mg/kg, iv after 3 hrs; type: ADME, organism-based; design: dose 10 mg/kg, route intravenous; conditions: in vivo
Spleen [5] = assay: Biodistribution in spleen of BALB/c mouse allografted with mouse C26 cells at 10 mg/kg, iv after 24 hrs; type: ADME, organism-based; design: dose 10 mg/kg, route intravenous; conditions: in vivo
Liver [6] = assay: Biodistribution in liver of BALB/c mouse allografted with mouse C26 cells at 10 mg/kg, iv after 3 hrs; type: ADME, organism-based; design: dose 10 mg/kg, route intravenous; conditions: in vivo
[7] = Biodistribution in tumor of BALB/c mouse allografted with mouse C26 cells at 10 mg/kg, iv after 3 hrs; type: ADME, organism-based, Neoplasm; design: dose 10 mg/kg, route intravenous; conditions: read-out: Drug uptake
Brain [8] = assay: Biodistribution in brain of BALB/c mouse allografted with mouse C26 cells at 10 mg/kg, iv after 3 hrs; type: ADME, organism-based; design: dose 10 mg/kg, route intravenous; conditions: in vivo
Mus musculus [9] = assay: Toxicity against BALB/c mouse allografted with mouse C26 cells assessed as cellular damage in kidney at 10 mg/kg, iv administered for 3 hrs followed by irradiation measured after 3 days by hematoxylin and eosin staining; type: organism-based; design: dose 10 mg/kg, route intravenous; conditions: in vivo, 72 h
Spleen [10] = assay: Biodistribution in spleen of BALB/c mouse allografted with mouse C26 cells at 10 mg/kg, iv after 3 hrs; type: ADME, organism-based; design: dose 10 mg/kg, route intravenous; conditions: in vivo
Mus musculus [11] = assay: Toxicity against BALB/c mouse allografted with mouse C26 cells assessed as cellular damage in liver at 10 mg/kg, iv administered for 3 hrs followed by irradiation measured after 3 days by hematoxylin and eosin staining; type: organism-based; design: dose 10 mg/kg, route intravenous; conditions: in vivo, 72 h
C26 [12] = assay: Antitumor activity against mouse C26 cells allografted in BALB/c mouse assessed as sparsely distributed cell nuclei of tumor cells at 10 mg/kg, iv administered for 3 hrs followed by light irradiation measured after 3 days by hematoxylin and eosin staining relative to control; type: functional, organism-based; design: dose 10 mg/kg
Kidney [13] = assay: Biodistribution in kidney of BALB/c mouse allografted with mouse C26 cells at 10 mg/kg, iv after 24 hrs; type: ADME, organism-based; design: dose 10 mg/kg, route intravenous; conditions: in vivo
Liver [14] = assay: Biodistribution in liver of BALB/c mouse allografted with mouse C26 cells at 10 mg/kg, iv after 24 hrs; type: ADME, organism-based; design: dose 10 mg/kg, route intravenous; conditions: in vivo
Mus musculus [15] = assay: Biodistribution in tumor of BALB/c mouse allografted with mouse C26 cells at 10 mg/kg, iv after 1 to 24 hrs; type: ADME, organism-based, Neoplasm; design: dose 10 mg/kg, route intravenous; conditions: in vivo
Zone of skin [16] = assay: Biodistribution in skin of BALB/c mouse allografted with mouse C26 cells at 10 mg/kg, iv after 24 hrs; type: ADME, organism-based; design: dose 10 mg/kg, route intravenous; conditions: in vivo
Lung [17] = assay: Biodistribution in lung of BALB/c mouse allografted with mouse C26 cells at 10 mg/kg, iv after 24 hrs; type: ADME, organism-based; design: dose 10 mg/kg, route intravenous; conditions: in vivo
C26 [18] = assay: Antitumor activity against mouse C26 cells allografted in BALB/c mouse assessed as reduction in nuclei number of tumor cells at 10 mg/kg, iv administered for 3 hrs followed by light irradiation measured after 3 days by hematoxylin and eosin staining relative to control; type: functional, organism-based; design: dose 10 mg/kg
C26 [19] = assay: Antitumor activity against mouse C26 cells allografted in BALB/c mouse assessed as poor nuclei staining of tumor cells at 10 mg/kg, iv administered for 3 hrs followed by light irradiation measured after 3 days by hematoxylin and eosin staining relative to control; type: functional, organism-based; design: dose 10 mg/kg
[20] = Solubility of the compound in water; type: physicochemical
[21] = Biodistribution in serum of BALB/c mouse allografted with mouse C26 cells at 10 mg/kg, iv after 3 hrs; type: ADME, organism-based; design: dose 10 mg/kg, route intravenous; conditions: read-out: Drug uptake
[22] = Biodistribution in serum of BALB/c mouse allografted with mouse C26 cells at 10 mg/kg, iv after 6 hrs; type: ADME, organism-based; design: dose 10 mg/kg, route intravenous; conditions: read-out: Drug uptake
Brain [23] = assay: Biodistribution in brain of BALB/c mouse allografted with mouse C26 cells at 10 mg/kg, iv after 24 hrs; type: ADME, organism-based; design: dose 10 mg/kg, route intravenous; conditions: in vivo
Muscle tissue [24] = assay: Biodistribution in muscle of BALB/c mouse allografted with mouse C26 cells at 10 mg/kg, iv after 24 hrs; type: ADME, organism-based; design: dose 10 mg/kg, route intravenous; conditions: in vivo
C26 [25] = assay: Antitumor activity against mouse C26 cells allografted in BALB/c mouse at 10 mg/kg, iv followed by light irradiation measured after 3 to 7 days; type: functional, organism-based; design: dose 10 mg/kg
Zone of skin [26] = assay: Biodistribution in skin of BALB/c mouse allografted with mouse C26 cells at 10 mg/kg, iv after 3 hrs; type: ADME, organism-based; design: dose 10 mg/kg, route intravenous; conditions: in vivo
Muscle tissue [27] = assay: Biodistribution in muscle of BALB/c mouse allografted with mouse C26 cells at 10 mg/kg, iv after 3 hrs; type: ADME, organism-based; design: dose 10 mg/kg, route intravenous; conditions: in vivo
Serum [28] = assay: Biodistribution in serum of BALB/c mouse allografted with mouse C26 cells at 10 mg/kg, iv after 24 hrs; type: ADME, organism-based; design: dose 10 mg/kg, route intravenous; conditions: in vivo
Serum [29] = assay: Biodistribution in serum of BALB/c mouse allografted with mouse C26 cells at 10 mg/kg, iv after 1 to 24 hrs; type: ADME, organism-based; design: dose 10 mg/kg, route intravenous; conditions: in vivo
Liver [30] = assay: Biodistribution in liver of BALB/c mouse allografted with mouse C26 cells at 10 mg/kg, iv after 1 to 24 hrs; type: ADME, organism-based; design: dose 10 mg/kg, route intravenous; conditions: in vivo

concentration at 1 h [2]: 17200 ng/g
Drug uptake (Lung [3]): Active
Drug uptake (Kidney [4]): Active
Drug uptake (Spleen [5]): Not Active
Drug uptake (Liver [6]): Active
concentration at 3 h [7]: 690 ng/g
Drug uptake (Brain [8]): Active
Drug uptake (Spleen [10]): Active
Drug uptake (Kidney [13]): Not Active
Drug uptake (Liver [14]): Not Active
Drug uptake (Mus musculus [15]): Active
Drug uptake (Zone of skin [16]): Not Active
Drug uptake (Lung [17]): Not Active
solubility [20]: 100000 µg/mL
concentration at 3 h [21]: 8400 ng/g
concentration at 6 h [22]: 3400 ng/g
Drug uptake (Brain [23]): Not Active
Drug uptake (Muscle tissue [24]): Not Active
Drug uptake (Zone of skin [26]): Active
Drug uptake (Muscle tissue [27]): Active
Drug uptake (Serum [28]): Not Active
Structure (SMILES): C=Cc1c(C)c2cc3nc(cc4[nH]c(cc5nc(cc1[nH]2)C(C)(O)/C5=C\C=N/OCC)c(C)c4CCC(=O)N(CC(=O)[O-])CC(=O)[O-])C(CCC(=O)N(CC(=O)[O-])CC(=O)[O-])=C3C.[Na+].[Na+].[Na+].[Na+] (stereo unspecified)
Activity (C26 [1]): Active
Activity (Mus musculus [9]): Non-toxic
Activity (Mus musculus [11]): Non-toxic
Activity (C26 [12]): Active
Activity (C26 [18]): Active
Activity (C26 [19]): Active
TGI (C26 [25]): Active

Drug uptake (Mus musculus [15]): Not Active
solubility [20]: 10000 µg/mL
Structure (SMILES): C=Cc1c(C)c2cc3nc(cc4[nH]c(cc5nc(cc1[nH]2)C(C)(O)/C5=C\CO)c(C)c4CCC(=O)[O-])C(CCC(=O)[O-])=C3C.[Na+].[Na+] (stereo unspecified)

concentration at 1 h [2]: 24200 ng/g
Drug uptake (Serum [29]): Active
Drug uptake (Mus musculus [15]): Active
solubility [20]: 10000 µg/mL
concentration at 3 h [21]: 5900 ng/g
Drug uptake (Liver [30]): Active
Structure (SMILES): C=Cc1c(C)c2cc3nc(cc4[nH]c(cc5nc(cc1[nH]2)C(C)(O)/C5=C\C=N/OCC)c(C)c4CCC(=O)[O-])C(CCC(=O)[O-])=C3C.[Na+].[Na+] (stereo unspecified)
